Results taken from patent US20240228489A1, “POSITIVE ALLOSTERIC MODULATORS OF THE MUSCARINIC ACETYLCHOLINE RECEPTOR M1” (Vanderbilt University, priority 2021, published 2024).
pEC50: −log10 of the molar value. One block for each compound: values may come before it.

Legend:
human mAChR M1 [1] = target: T1, human mAChR M1 (Homo sapiens, UniProt P11229); test: mAChR M1 cell-based functional assay (calcium mobilization), agonist mode: compound alone, Emax relative to acetylcholine maximum; conditions: for Agonist Activity Human M1 EC50 / pEC50: human mAChR M1
T1 sequence (P11229 1-460): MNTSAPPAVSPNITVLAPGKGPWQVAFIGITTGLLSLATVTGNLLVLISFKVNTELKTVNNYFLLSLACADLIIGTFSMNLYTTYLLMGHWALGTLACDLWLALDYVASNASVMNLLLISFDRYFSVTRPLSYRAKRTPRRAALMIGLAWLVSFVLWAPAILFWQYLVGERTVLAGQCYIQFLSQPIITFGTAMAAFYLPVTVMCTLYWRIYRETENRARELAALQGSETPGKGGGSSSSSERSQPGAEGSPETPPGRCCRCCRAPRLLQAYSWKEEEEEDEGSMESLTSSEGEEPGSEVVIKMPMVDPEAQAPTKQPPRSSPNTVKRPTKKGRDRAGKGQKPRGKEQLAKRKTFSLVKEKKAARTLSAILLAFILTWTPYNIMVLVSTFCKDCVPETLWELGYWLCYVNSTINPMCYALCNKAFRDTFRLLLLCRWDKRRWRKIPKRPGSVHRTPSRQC
In short: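 Agonist activity is the concentration-dependent rise in intracellular calcium (Fluo-4, 1 Hz read) after compound addition, measured before any acetylcholine was added, in stable hM1 CHO-K1 cells. Curves were 11-point, 1:3 dilutions fitted by four-parameter logistic. Emax is given as a fraction of maximal acetylcholine response.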

human mAChR M1 [2] = target: T1, human mAChR M1; test: mAChR M1 cell-based functional assay (calcium mobilization), PAM mode: increase in the EC20 acetylcholine response
In short: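 PAM readout is the concentration-dependent rise in the EC20 acetylcholine calcium signal, fitted to a four-parameter logistic (EC50, Emax). Compounds were preincubated from 4 s before ACh at 144 s (EC20) and 230 s (EC80). hM1-expressing CHO-K1 cells loaded with Fluo-4, FDSS ratio read.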

[3] = relative to the maximum for acetylcholine

SMILES: [2H]C1([2H])c2ncccc2C(=O)N1Cc1ccc(-c2cnc3nn(C)cc3c2)cc1 [Compound 13, 6-(4-(2-methyl-2H-pyrazolo[3,4-b]pyridin-5-yl)benzyl)-6,7-dihydro-5H-pyrrolo[3,4-b]pyridin-5-one-7,7-d2]
Agonist Activity Human M1 EC50 (human mAChR M1 [1]): Inactive
Emax (human mAChR M1 [1]; [3]): 3%
pEC50 (human mAChR M1 [2]): 5.28
Emax (human mAChR M1 [2]): 75%

SMILES: [2H]C1([2H])c2ncccc2C(=O)N1Cc1ccc(-c2cccc3nn(C)cc23)cc1 [Compound 11, 6-(4-(2-methyl-2H-indazol-4-yl)benzyl)-6,7-dihydro-5H-pyrrolo[3,4-b]pyridin-5-one-7,7-d2]
Agonist Activity Human M1 EC50 (human mAChR M1 [1]): Inactive
Emax (human mAChR M1 [1]; [3]): 6%
pEC50 (human mAChR M1 [2]): 5.89
Emax (human mAChR M1 [2]): 77%

SMILES: [2H]C1([2H])c2ncccc2C(=O)N1Cc1ccc(-c2cnc3nn(C)cc3c2)cc1C [Compound 34, 6-(2-methyl-4-(2-methyl-2H-pyrazolo[3,4-b]pyridin-5-yl)benzyl)-6,7-dihydro-5H-pyrrolo[3,4-b]pyridin-5-one-7,7-d2]
pEC50 (human mAChR M1 [1]): < 5.00
Emax (human mAChR M1 [1]; [3]): 3%
pEC50 (human mAChR M1 [2]): 5.70
Emax (human mAChR M1 [2]): 82%

SMILES: [2H]C1([2H])c2ncccc2C(=O)N1Cc1c(F)cc(-c2cc(F)c(Cl)c3nn(C)cc23)cc1F [Compound 77, 6-(4-(7-chloro-6-fluoro-2-methyl-2H-indazol-4-yl)-2,6-difluorobenzyl)-6,7-dihydro-5H-pyrrolo[3,4-b]pyridin-5-one-7,7-d2]
Agonist Activity Human M1 EC50 (human mAChR M1 [1]): Inactive
Agonist Activity Emax (human mAChR M1 [1]; [3]): 1%
pEC50 (human mAChR M1 [2]): 5.87
PAM Activity Emax (human mAChR M1 [2]): 47%

SMILES: [2H]C1([2H])c2ncccc2C(=O)N1Cc1ccc(-c2cc3cn(C)nc3cc2F)cc1 [Compound 15, 6-(4-(6-fluoro-2-methyl-2H-indazol-5-yl)benzyl)-6,7-dihydro-5H-pyrrolo[3,4-b]pyridin-5-one-7,7-d2]
Agonist Activity Human M1 EC50 (human mAChR M1 [1]): Inactive
Emax (human mAChR M1 [1]; [3]): 2%
pEC50 (human mAChR M1 [2]): 5.75
Emax (human mAChR M1 [2]): 51%

SMILES: [2H]C1([2H])c2ncccc2C(=O)N1Cc1ccc(-c2ccc(OC(F)(F)F)c3nn(C)cc23)cc1F [Compound 110, 6-(2-fluoro-4-(2-methyl-7-(trifluoromethoxy)-2H-indazol-4-yl)benzyl)-6,7-dihydro-5H-pyrrolo[3,4-b]pyridin-5-one-7,7-d2]
Agonist Activity Human M1 EC50 (human mAChR M1 [1]): Inactive
Emax (human mAChR M1 [1]; [3]): 4%
pEC50 (human mAChR M1 [2]): 5.84
Emax (human mAChR M1 [2]): 71%

SMILES: [2H]C1([2H])c2ncccc2C(=O)N1Cc1c(F)cc(-c2ccc(OC(F)(F)F)c3nn(C)cc23)cc1F [Compound 103, 6-(2,6-difluoro-4-(2-methyl-7-(trifluoromethoxy)-2H-indazol-4-yl)benzyl)-6,7-dihydro-5H-pyrrolo[3,4-b]pyridin-5-one-7,7-d2]
Agonist Activity Human M1 EC50 (human mAChR M1 [1]): Inactive
Emax (human mAChR M1 [1]; [3]): 2%
pEC50 (human mAChR M1 [2]): 5.81
Emax (human mAChR M1 [2]): 73%

SMILES: [2H]C1([2H])c2ncccc2C(=O)N1Cc1c(F)cc(-c2ccnc3nn(C)cc23)cc1OCC(C)C [Compound 217, 6-(2-fluoro-6-isobutoxy-4-(2-methyl-2H-pyrazolo[3,4-b]pyridin-4-yl)benzyl)-6,7-dihydro-5H-pyrrolo[3,4-b]pyridin-5-one-7,7-d2]
pEC50 (human mAChR M1 [1]): 5.54
Emax (human mAChR M1 [1]; [3]): 23%
pEC50 (human mAChR M1 [2]): 6.68
Emax (human mAChR M1 [2]): 78%

Continued by rising pEC50 (human mAChR M1 [2]), values first:

pEC50 (human mAChR M1 [1]): ≤ 5.00
Emax (human mAChR M1 [1]; [3]): 26%
pEC50 (human mAChR M1 [2]): 6.14
Emax (human mAChR M1 [2]): 77%
SMILES: [2H]C1([2H])c2ncccc2C(=O)N1Cc1c(F)cc(-c2ccc(OCCOC(C)C)c3nn(C)cc23)cc1F [Compound 149, 6-(2,6-difluoro-4-(7-(2-isopropoxyethoxy)-2-methyl-2H-indazol-4-yl)benzyl)-6,7-dihydro-5H-pyrrolo[3,4-b]pyridin-5-one-7,7-d2]

Agonist Activity Human M1 EC50 (human mAChR M1 [1]): Inactive
Emax (human mAChR M1 [1]; [3]): 9%
pEC50 (human mAChR M1 [2]): 6.17
Emax (human mAChR M1 [2]): 77%
SMILES: [2H]C1([2H])c2ncccc2C(=O)N1Cc1ccc(-c2cccc3nn(C([2H])([2H])[2H])cc23)cc1C [Compound 46, 6-(2-methyl-4-(2-(methyl-d^3)-2H-indazol-4-yl)benzyl)-6,7-dihydro-5H-pyrrolo[3,4-b]pyridin-5-one-7,7-d2]

Agonist Activity Human M1 EC50 (human mAChR M1 [1]): Inactive
Emax (human mAChR M1 [1]; [3]): 6%
pEC50 (human mAChR M1 [2]): 6.17
Emax (human mAChR M1 [2]): 68%
SMILES: [2H]C1([2H])c2ncccc2C(=O)N1Cc1c(F)cc(-c2cnc3nn(C([2H])([2H])[2H])cc3c2)cc1F [Compound 115, 6-(2,6-difluoro-4-(2-(methyl-d3)-2H-pyrazolo[3,4-b]pyridin-5-yl)benzyl)-6,7-dihydro-5H-pyrrolo[3,4-b]pyridin-5-one-7,7-d2]

pEC50 (human mAChR M1 [1]): 5.20
Emax (human mAChR M1 [1]; [3]): 28%
pEC50 (human mAChR M1 [2]): 6.27
Emax (human mAChR M1 [2]): 80%
SMILES: [2H]C1([2H])c2ncccc2C(=O)N1Cc1ccc(-c2ccc(C)c3nn(C)cc23)cc1F [Compound 28, 6-(4-(2,7-dimethyl-2H-indazol-4-yl)-2-fluorobenzyl)-6,7-dihydro-5H-pyrrolo[3,4-b]pyridin-5-one-7,7-d2]

Agonist Activity Human M1 EC50 (human mAChR M1 [1]): Inactive
Emax (human mAChR M1 [1]; [3]): 8%
pEC50 (human mAChR M1 [2]): 6.33
Emax (human mAChR M1 [2]): 86%
SMILES: [2H]C1([2H])c2ncccc2C(=O)N1Cc1c(Cl)cc(-c2cccc3nn(C([2H])([2H])[2H])cc23)cc1C1CC1 [Compound 220, 6-(2-chloro-6-cyclopropyl-4-(2-(methyl-d3)-2H-indazol-4-yl)benzyl)-6,7-dihydro-5H-pyrrolo[3,4-b]pyridin-5-one-7,7-d2]

pEC50 (human mAChR M1 [1]): ≤ 5.00
Emax (human mAChR M1 [1]; [3]): 31%
pEC50 (human mAChR M1 [2]): 6.47
Emax (human mAChR M1 [2]): 81%
SMILES: [2H]C1([2H])c2ncccc2C(=O)N1Cc1c(F)cc(-c2ccc(O[C@@H](C)COC)c3nn(C)cc23)cc1F [Compound 171, (S)-6-(2,6-difluoro-4-(7-((1-methoxypropan-2-yl)oxy)-2-methyl-2H-indazol-4-yl)benzyl)-6,7-dihydro-5H-pyrrolo[3,4-b]pyridin-5-one-7,7-d2]

pEC50 (human mAChR M1 [1]): 5.22
Emax (human mAChR M1 [1]; [3]): 13%
pEC50 (human mAChR M1 [2]): 6.67
Emax (human mAChR M1 [2]): 81%
SMILES: [2H]C([2H])([2H])Oc1cnc2c(c1)C(=O)N(Cc1ccc(-c3ccc(OC)c4nn(C)cc34)cc1F)C2([2H])[2H] [Compound 142, 6-(2-fluoro-4-(7-methoxy-2-methyl-2H-indazol-4-yl)benzyl)-3-(methoxy-d3)-6,7-dihydro-5H-pyrrolo[3,4-b]pyridin-5-one-7,7-d2]

pEC50 (human mAChR M1 [1]): < 5.00
Emax (human mAChR M1 [1]; [3]): 8%
pEC50 (human mAChR M1 [2]): 6.76
Emax (human mAChR M1 [2]): 89%
SMILES: [2H]C1([2H])c2ncccc2C(=O)N1Cc1c(F)cc(-c2ccc(OC)c3nn(C([2H])([2H])[2H])cc23)cc1F [Compound 51, 6-(2,6-difluoro-4-(7-methoxy-2-(methyl-d3)-2H-indazol-4-yl)benzyl)-6,7-dihydro-5H-pyrrolo[3,4-b]pyridin-5-one-7,7-d2]

Agonist Activity Human M1 EC50 (human mAChR M1 [1]): Inactive
Emax (human mAChR M1 [1]; [3]): 2%
pEC50 (human mAChR M1 [2]): 7.12
Emax (human mAChR M1 [2]): 63%
SMILES: [2H]C([2H])([2H])Oc1cnc2c(c1)C(=O)N(Cc1c(F)cc(-c3ccc4nn(C)cc4c3)cc1F)C2([2H])[2H] [Compound 112, 6-(2,6-difluoro-4-(2-methyl-2H-indazol-5-yl)benzyl)-3-(methoxy-d3)-6,7-dihydro-5H-pyrrolo[3,4-b]pyridin-5-one-7,7-d2]

pEC50 (human mAChR M1 [1]): 5.43
Emax (human mAChR M1 [1]; [3]): 29%
pEC50 (human mAChR M1 [2]): 7.24
Emax (human mAChR M1 [2]): 78%
SMILES: [2H]C1([2H])c2ncccc2C(=O)N1Cc1c(F)cc(-c2cc(OC)c3nn(C)cc3c2)cc1F [Compound 76, 6-(2,6-difluoro-4-(7-methoxy-2-methyl-2H-indazol-5-yl)benzyl)-6,7-dihydro-5H-pyrrolo[3,4-b]pyridin-5-one-7,7-d2]
